# Data reported in patent US5358951A, “Angiotensin II receptor blocking 2, 3, 6 substituted quinazolinones” (American Cyanamid Company, priority 1993, dated 1994).
# Tested on: vasopressor response of angiotensin II
# Experiment: AII Challenge: antagonism of angiotensin II vasopressor response;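 for Response Average Change: post-dose Angiotensin II-evoked rise in systolic blood pressure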
# Format: in vivo
# Conditions: for inhibition in vivo at 3 mg/kg / inhibition in vivo at 5 mg/kg: Rattus norvegicus; for inhibition in vivo at 3 mg/kg: iv; for inhibition in vivo at 5 mg/kg: po
# From the text: Conscious Male Okamoto-Aoki SHR, 16-20 weeks old, weighing approximately 330 g are purchased from Charles River Labs (Wilmington, Mass.). Conscious rats are restrained in a supine position with elastic tape. The area at the base of the tail is locally anesthetized by subcutaneous infiltration with 2% procaine. The ventral caudal artery and vein are isolated, and a cannula made of polyethylene (PE) 10-20 tubing (fused together by heat) is passed into the lower abdominal aorta and vena cava, respectively. The cannula is secured, heparinized (1,000 I.U./ml), sealed and the wound is closed. The animals are placed in plastic restraining cages in an upright position. The cannula is attached to a Statham P23 Db pressure transducer, and pulsatile blood pressure is recorded to 10-15 minutes with a Gould Brush recorder. (Chan et al., (Drug Development Res., 18:75-94, 1989). Angiotensin II (human sequence, Sigma Chem. Co., St. Louis, Mo.) of 0.05 and 0.1 ug/kg i.v. is injected into all rats (predosing response). Then a test compound, vehicle or a known angiotensin II antagonist is administered i.v., i.p. or orally to each set of rats. The two doses of angiotensin II are given to each rat again at 30, 60, 90, 120, 180, 240 and 300 minutes post dosing the compound or vehicle. The vasopressor response of angiotensin II is measured for the increase in systolic blood pressure in mmHg. The percentage of antagonism or blockade of the vasopressor response of angiotensin II by a compound is calculated using the vasopressor response (increase in systolic blood pressure) of angiotensin II of each rat predosing the compound as 100%.
# [1] = 3 mg/kg I.V., AII 0.05 mcg/kg IV, 30 min post dose
# [2] = 3 mg/kg I.V., AII 0.05 mcg/kg IV, 60 min post dose
# [3] = 3 mg/kg I.V., AII 0.05 mcg/kg IV, 90 min post dose
# [4] = 3 mg/kg I.V., AII 0.05 mcg/kg IV, 120 min post dose
# [5] = 3 mg/kg I.V., AII 0.05 mcg/kg IV, 180 min post dose
# [6] = 3 mg/kg I.V., AII 0.1 mcg/kg IV, 30 min post dose
# [7] = 3 mg/kg I.V., AII 0.1 mcg/kg IV, 60 min post dose
# [8] = 3 mg/kg I.V., AII 0.1 mcg/kg IV, 90 min post dose
# [9] = 3 mg/kg I.V., AII 0.1 mcg/kg IV, 120 min post dose
# [10] = 3 mg/kg I.V., AII 0.1 mcg/kg IV, 180 min post dose
# [11] = 0.5 h, 3 mg/kg I.V., AII 0.05 mcg/kg IV, 30 min post dose
# [12] = 0.5 h, 3 mg/kg I.V., AII 0.1 mcg/kg IV, 30 min post dose
# [13] = 1 h, 3 mg/kg I.V., AII 0.05 mcg/kg IV, 60 min post dose
# [14] = 1 h, 3 mg/kg I.V., AII 0.1 mcg/kg IV, 60 min post dose
# [15] = 2 h, 3 mg/kg I.V., AII 0.05 mcg/kg IV, 120 min post dose
# [16] = 2 h, 3 mg/kg I.V., AII 0.1 mcg/kg IV, 120 min post dose
# [17] = 3 h, 3 mg/kg I.V., AII 0.05 mcg/kg IV, 180 min post dose
# [18] = 3 h, 3 mg/kg I.V., AII 0.1 mcg/kg IV, 180 min post dose
# [19] = […], 3 mg/kg I.V., AII 0.05 mcg/kg IV, 90 min post dose
# [20] = […], 3 mg/kg I.V., AII 0.1 mcg/kg IV, 90 min post dose
smiles,measurement,setting,value
"CCCCc1nc2ccc([C@]3(C)C[C@@H]4CCCCN4O3)cc2c(=O)n1Cc1ccc(-c2ccccc2-c2nnn[nH]2)cc1 (relative stereo) [Example 68, Trans-2-Butyl-6-(hexahydro-2-methyl-2H-isoxazolo[2,3-a]pyridin-2-yl)-3-[[2'-(1H-tetrazol-5-yl)[1,1'-biphenyl]-4-yl]methyl]-4(3H)-quinazolinone]",Response Average Change,[1],2.5 mmHg
same,Response Average Change,[2],2.5 mmHg
same,Response Average Change,[3],7.5 mmHg
same,Response Average Change,[4],11 mmHg
same,Response Average Change,[5],10 mmHg
same,Response Average Change,"3 mg/kg I.V., AII 0.05 mcg/kg IV, 240 min post dose",20 mmHg
same,Response Average Change,"3 mg/kg I.V., AII 0.05 mcg/kg IV, 300 min post dose",10 mmHg
same,Response Average Change,[6],5 mmHg
same,Response Average Change,[7],9 mmHg
same,Response Average Change,[8],9 mmHg
same,Response Average Change,[9],10 mmHg
same,Response Average Change,[10],20 mmHg
same,Response Average Change,"3 mg/kg I.V., AII 0.1 mcg/kg IV, 240 min post dose",17.5 mmHg
same,Response Average Change,"3 mg/kg I.V., AII 0.1 mcg/kg IV, 300 min post dose",22.5 mmHg
same,inhibition in vivo at 3 mg/kg,[11],95%
same,inhibition in vivo at 3 mg/kg,[12],91%
same,inhibition in vivo at 3 mg/kg,[13],95%
same,inhibition in vivo at 3 mg/kg,[14],84%
same,inhibition in vivo at 3 mg/kg,[15],79%
same,inhibition in vivo at 3 mg/kg,[16],82%
same,inhibition in vivo at 3 mg/kg,[17],81%
same,inhibition in vivo at 3 mg/kg,[18],64%
same,inhibition in vivo at 3 mg/kg,"4 h, 3 mg/kg I.V., AII 0.05 mcg/kg IV, 240 min post dose",61%
same,inhibition in vivo at 3 mg/kg,"4 h, 3 mg/kg I.V., AII 0.1 mcg/kg IV, 240 min post dose",69%
same,inhibition in vivo at 3 mg/kg,"5 h, 3 mg/kg I.V., AII 0.05 mcg/kg IV, 300 min post dose",81%
same,inhibition in vivo at 3 mg/kg,"5 h, 3 mg/kg I.V., AII 0.1 mcg/kg IV, 300 min post dose",60%
same,inhibition in vivo at 3 mg/kg,[19],85%
same,inhibition in vivo at 3 mg/kg,[20],84%
"CCCCc1nc2ccc(C3ON4CCCC4C3C(=O)OCC)cc2c(=O)n1Cc1ccc(-c2ccccc2-c2nnn[nH]2)cc1 (centres unmarked) [Example 62, Ethyl 2-[2-butyl-3,4-dihydro-4-oxo-3-[[2'-(1H-tetrazol-5-yl)[1,1'-biphenyl]-4-yl]methyl]-6quinazolinyl]hexahydro-pyrrolo[1,2-b]isoxazole3-carboxylate]",Response Average Change,[1],14 mmHg
same,Response Average Change,[2],18 mmHg
same,Response Average Change,[3],30 mmHg
same,Response Average Change,[4],25 mmHg
same,Response Average Change,[5],33.5 mmHg
same,Response Average Change,[6],10 mmHg
same,Response Average Change,[7],36 mmHg
same,Response Average Change,[8],40 mmHg
same,Response Average Change,[9],35 mmHg
same,Response Average Change,[10],35 mmHg
same,Response Average Change,"5 mg/kg P.O., AII 0.05 mcg/kg IV, 30 min post dose",22.5 mmHg
same,Response Average Change,"5 mg/kg P.O., AII 0.05 mcg/kg IV, 60 min post dose",37.5 mmHg
same,Response Average Change,"5 mg/kg P.O., AII 0.05 mcg/kg IV, 120 min post dose",40 mmHg
same,Response Average Change,"5 mg/kg P.O., AII 0.05 mcg/kg IV, 180 min post dose",25 mmHg
same,Response Average Change,"5 mg/kg P.O., AII 0.05 mcg/kg IV, 240 min post dose",40 mmHg
same,Response Average Change,"5 mg/kg P.O., AII 0.1 mcg/kg IV, 30 min post dose",43.5 mmHg
same,Response Average Change,"5 mg/kg P.O., AII 0.1 mcg/kg IV, 60 min post dose",43.5 mmHg
same,Response Average Change,"5 mg/kg P.O., AII 0.1 mcg/kg IV, 90 min post dose",45 mmHg
same,Response Average Change,"5 mg/kg P.O., AII 0.1 mcg/kg IV, 120 min post dose",45 mmHg
same,Response Average Change,"5 mg/kg P.O., AII 0.1 mcg/kg IV, 180 min post dose",47.5 mmHg
same,Response Average Change,"5 mg/kg P.O., AII 0.1 mcg/kg IV, 240 min post dose",50 mmHg
same,inhibition in vivo at 3 mg/kg,[11],61%
same,inhibition in vivo at 3 mg/kg,[12],82%
same,inhibition in vivo at 3 mg/kg,[13],49%
same,inhibition in vivo at 3 mg/kg,[14],36%
same,inhibition in vivo at 3 mg/kg,[15],30%
same,inhibition in vivo at 3 mg/kg,[16],38%
same,inhibition in vivo at 3 mg/kg,[17],6%
same,inhibition in vivo at 3 mg/kg,[18],38%
same,inhibition in vivo at 3 mg/kg,[19],15%
same,inhibition in vivo at 3 mg/kg,[20],29%
same,inhibition in vivo at 5 mg/kg,"0.5 h, 5 mg/kg P.O., AII 0.05 mcg/kg IV, 30 min post dose",44%
same,inhibition in vivo at 5 mg/kg,"0.5 h, 5 mg/kg P.O., AII 0.1 mcg/kg IV, 30 min post dose",-5%
same,inhibition in vivo at 5 mg/kg,"1 h, 5 mg/kg P.O., AII 0.05 mcg/kg IV, 60 min post dose",6%
same,inhibition in vivo at 5 mg/kg,"1 h, 5 mg/kg P.O., AII 0.1 mcg/kg IV, 60 min post dose",-5%
same,inhibition in vivo at 5 mg/kg,"2 h, 5 mg/kg P.O., AII 0.05 mcg/kg IV, 120 min post dose",0%
same,inhibition in vivo at 5 mg/kg,"2 h, 5 mg/kg P.O., AII 0.1 mcg/kg IV, 120 min post dose",-8%
same,inhibition in vivo at 5 mg/kg,"3 h, 5 mg/kg P.O., AII 0.05 mcg/kg IV, 180 min post dose",38%
same,inhibition in vivo at 5 mg/kg,"3 h, 5 mg/kg P.O., AII 0.1 mcg/kg IV, 180 min post dose",-14%
same,inhibition in vivo at 5 mg/kg,"4 h, 5 mg/kg P.O., AII 0.05 mcg/kg IV, 240 min post dose",0%
same,inhibition in vivo at 5 mg/kg,"4 h, 5 mg/kg P.O., AII 0.1 mcg/kg IV, 240 min post dose",-20%
same,inhibition in vivo at 5 mg/kg,"[…], 5 mg/kg P.O., AII 0.05 mcg/kg IV, 90 min post dose",19%
same,inhibition in vivo at 5 mg/kg,"[…], 5 mg/kg P.O., AII 0.1 mcg/kg IV, 90 min post dose",-8%
